The values that follow come from patent publication US9090600B2, “Fungicidal 4-substituted-3-{phenyl[(heterocyclylmethoxy)imino]methyl}-1,2,4-oxadizol-5(4H)-one derivatives” (BAYER INTELLECTUAL PROPERTY GMBH, priority 2011, dated 2015).

Each structure is given as a SMILES string. Marks after values point to notes of the source that are not given here.

The conditions of this data set: pH 2.7.
Take `Cn1c(/C(=N\OCc2cccc(NC(=O)COc3ccc(Cl)cc3)n2)c2ccccc2)noc1=O` [Example 402]: the LogP (as a rule, a log measure of how a compound divides between an organic and an aqueous phase) is 4.1 [a]. For `CCCCOC(=S)Nc1nc(CO/N=C(/c2ccccc2)c2noc(=O)n2C)cs1` [Example 410], the LogP was 4.56 [a]. Take `Cn1c(/C(=N/OCc2cccc(N)n2)c2cccc(F)c2F)noc1=O` [Example 416]: the LogP is 1.26 [a].

Turning to `Cn1c(/C(=N\OCc2cccc(NC(=O)OC3CCCCC3)n2)c2cccc(F)c2F)noc1=O` [Example 417], the LogP is 4.46 [a].

In the case of `CCCCC(=O)Nc1cccc(CO/N=C(/c2cccc(F)c2F)c2noc(=O)n2C)n1` [Example 420], the log partition coefficient (LogP) was 3.55 [a]. With `Cn1c(/C(=N\OCc2csc(NC(=O)C3COc4ccccc4O3)n2)c2ccccc2Cl)noc1=O` (stereo not drawn) [Example 442] the figure was 3.73 [a]. For `CCCCCOC(=O)Nc1cccc(CO/N=C(/c2ccccc2F)c2noc(=O)n2C)n1` [Example 444], the log partition coefficient (LogP) was 4.34 [a]. With `CCCC(C)C(=O)Nc1cccc(CO/N=C(/c2ccccc2F)c2noc(=O)n2C)n1` (stereo not drawn) [Example 449] the figure was 3.73 [a]; with `CC(C)(C)OC(=O)Nc1cccc(CON=C(c2noc(=O)[nH]2)c2cccc(F)c2F)n1` [Example 460], 3.76 [a]; with `CCCCCC(=O)Nc1cccc(CO/N=C(/c2cccc(F)c2F)c2noc(=O)n2C)n1` [Example 464], 3.92 [a].

`CCCCC(=O)Nc1cccc(CO/N=C(/c2ccccc2F)c2noc(=O)n2C)n1` [Example 480]: the LogP was 3.44 [a]. Consider `CCCCC(=O)Nc1nc(CO/N=C(/c2ccccc2Cl)c2noc(=O)n2C)cs1` [Example 481], for which the LogP is 3.53 [a].

On to `CC(Oc1ccccc1)C(=O)Nc1nc(CON=C(c2ccccc2Cl)c2noc(=O)n2C)cs1` (stereo not drawn) [Example 493], for which the log partition coefficient (LogP) was 3.81 [a]. With `C#CCCOC(=O)Nc1nc(CON=C(c2ccccc2Cl)c2noc(=O)n2C)cs1` [Example 499], the LogP is 3.19 [a]. With `Cn1c(C(=NOCc2cccc(N)n2)c2cccc(F)c2F)noc1=O` [Example 508] the figure was 1.34 [a]; with `Cn1c(C(=NOCc2cccc(N)n2)c2ccccc2F)noc1=O` [Example 510], 1.23 [a]; with `CCCCSC(=S)Nc1nc(CON=C(c2ccccc2)c2noc(=O)n2C)cs1` [Example 512], 4.81 [a]. With `CCCCCC(=O)Nc1cccc(CO/N=C(/c2ccccc2F)c2noc(=O)n2C)n1` [Example 513] the figure was 3.81 [a]; with `CCCCOC(=O)Nc1nc(CO/N=C(/c2ccccc2Cl)c2noc(=O)n2C)cs1` [Example 519], 3.85 [a]. As for `C#CCCOC(=O)Nc1cccc(CO/N=C(/c2ccccc2F)c2noc(=O)n2C)n1` [Example 525], the LogP was 3.21 [a].

For `CCCCCOC(=O)Nc1nc(CO/N=C(/c2ccccc2Cl)c2noc(=O)n2C)cs1` [Example 530], the LogP is 4.25 [a]. Consider `CCCCCC(=O)Nc1nc(CO/N=C(/c2ccccc2Cl)c2noc(=O)n2C)cs1` [Example 538], for which the log partition coefficient (LogP) is 3.89 [a]. Turning to `Cn1c(/C(=N\OCc2csc(NC(=O)SC(C)(C)C)n2)c2ccccc2)noc1=O` [Example 539], the log partition coefficient (LogP) was 4.04 [a]. The figure for `Cn1c(/C(=N\OCc2csc(NC(=O)Cc3ccccc3)n2)c2ccccc2Cl)noc1=O` [Example 543] is 3.51 [a]; for `CCCCOC(=O)Nc1cccc(CO/N=C(/c2ccccc2F)c2noc(=O)n2C)n1` [Example 552] it is 3.92 [a]; for `CCCCCCN(C(=O)OC(C)(C)C)c1cccc(CO/N=C(/c2cccc(C)c2)c2noc(=O)n2C)n1` [compound 299] it is 6.57 [a]. The figure for `Cn1c(/C(=N\OCc2cccc(NC(=O)OCCCC3CCCC3)n2)c2ccccc2)noc1=O` [compound 408] is 5.31 [a]. With `COc1ccccc1COC(=O)Nc1cccc(CO/N=C(/c2ccccc2)c2noc(=O)n2C)n1` [compound 409] the figure was 4.06 [a]. Regarding `Cn1c(/C(=N\OCc2cccc(NC(=O)OCc3ccncc3)n2)c2ccccc2)noc1=O` [compound 411], the log partition coefficient (LogP) was 2.01 [a]. The figure for `Cn1c(/C(=N\OCc2cccc(NC(=O)OCC3(C)COC3)n2)c2ccccc2)noc1=O` [compound 412] is 2.96 [a]. Consider `Cn1c(/C(=N\OCc2cccc(NC(=O)OCc3ccccc3Cl)n2)c2ccccc2)noc1=O` [compound 413], for which the LogP was 4.34 [a]. With `CC#CCOC(=O)Nc1cccc(CO/N=C(/c2ccccc2)c2noc(=O)n2C)n1` [compound 414] the figure was 3.42 [a]. For `CCCCCC#CCOC(=O)Nc1cccc(CO/N=C(/c2ccccc2)c2noc(=O)n2C)n1` [compound 415], the LogP was 4.86 [a]. With `CCCCC#CCOC(=O)Nc1cccc(CO/N=C(/c2ccccc2)c2noc(=O)n2C)n1` [compound 418] the figure was 4.51 [a]; with `CCCCCCCOC(=O)Nc1cccc(CO/N=C(/c2ccccc2)c2noc(=O)n2C)n1` [compound 419], 5.25 [a].

As for `CCOC(=O)Nc1cccc(CO/N=C(/c2ccccc2)c2noc(=O)n2C)n1` [compound 421], the lipophilicity (LogP) is 3.21 [a].

Regarding `Cn1c(/C(=N\OCc2cccc(NC(=O)OCCC[Si](C)(C)C)n2)c2ccccc2)noc1=O` [compound 422], the LogP was 5.28 [a].

For `Cn1c(/C(=N\OCc2cccc(NC(=O)OCCC(C)(C)C)n2)c2ccccc2)noc1=O` [compound 423], the LogP is 4.68 [a]. With `Cn1c(/C(=N\OCc2cccc(NC(=O)OCC(C)(CO)CCl)n2)c2ccccc2)noc1=O` (stereo not drawn) [compound 424] the figure was 3.19 [a]; with `Cc1ccc(OC(=O)Nc2cccc(CO/N=C(/c3ccccc3)c3noc(=O)n3C)n2)cc1` [compound 425], 4.03 [a]; with `CCCc1ccccc1OC(=O)Nc1cccc(CO/N=C(/c2ccccc2)c2noc(=O)n2C)n1` [compound 426], 4.54 [a]. The figure for `CC(C)OC(=O)Nc1cccc(CO/N=C(/c2ccccc2)c2noc(=O)n2C)n1` [compound 427] is 3.55 [a]. `Cn1c(/C(=N\OCc2cccc(NC(=O)OCc3c(Cl)cccc3Cl)n2)c2ccccc2)noc1=O` [compound 428]: the LogP is 4.56 [a].

Regarding `COC(C)CCOC(=O)Nc1cccc(CO/N=C(/c2ccccc2)c2noc(=O)n2C)n1` (stereo not drawn) [compound 429], the lipophilicity (LogP) is 3.37 [a]. For `CCc1ccccc1OC(=O)Nc1cccc(CO/N=C(/c2ccccc2)c2noc(=O)n2C)n1` [compound 430], the lipophilicity (LogP) is 4.25 [a]. The figure for `CCOCCCOC(=O)Nc1cccc(CO/N=C(/c2ccccc2)c2noc(=O)n2C)n1` [compound 431] is 3.44 [a]; for `Cn1c(/C(=N\OCc2cccc(NC(=O)OCc3ccc(C#N)cc3)n2)c2ccccc2)noc1=O` [compound 432] it is 3.61 [a]; for `Cn1c(/C(=N\OCc2cccc(NC(=O)OCC3CCCCO3)n2)c2ccccc2)noc1=O` (stereo not drawn) [compound 433] it is 3.5 [a]. Consider `Cn1c(/C(=N\OCc2cccc(NC(=O)OCc3cccnc3)n2)c2ccccc2)noc1=O` [compound 434], for which the LogP was 2.17 [a]. With `CCc1cccc(OC(=O)Nc2cccc(CO/N=C(/c3ccccc3)c3noc(=O)n3C)n2)c1` [compound 435] the figure was 4.34 [a]; with `C#CCCCOC(=O)Nc1cccc(CO/N=C(/c2ccccc2)c2noc(=O)n2C)n1` [compound 436], 3.51 [a]; with `Cn1c(/C(=N\OCc2cccc(NC(=O)OCc3ccccn3)n2)c2ccccc2)noc1=O` [compound 437], 2.64 [a]. Consider `Cn1c(/C(=N\OCc2cccc(NC(=O)OCCC3CC3)n2)c2ccccc2)noc1=O` [compound 438], for which the lipophilicity (LogP) is 4.01 [a]. The figure for `CCOCCOCCOC(=O)Nc1cccc(CO/N=C(/c2ccccc2)c2noc(=O)n2C)n1` [compound 439] is 3.13 [a]. With `Cn1c(/C(=N\OCc2cccc(NC(=O)OC[Si](C)(C)C)n2)c2ccccc2)noc1=O` [compound 440] the figure was 4.53 [a]; with `COc1cccc(COC(=O)Nc2cccc(CO/N=C(/c3ccccc3)c3noc(=O)n3C)n2)c1` [compound 441], 3.96 [a]; with `Cn1c(/C(=N\OCc2cccc(NC(=O)OCC#C[Si](C)(C)C)n2)c2ccccc2)noc1=O` [compound 443], 4.63 [a]. The figure for `Cn1c(/C(=N\OCc2cccc(NC(=O)OC(C)(C)C(Cl)(Cl)Cl)n2)c2ccccc2)noc1=O` [compound 445] is 4.91 [a]. For `CC(=O)CCCOC(=O)Nc1cccc(CO/N=C(/c2ccccc2)c2noc(=O)n2C)n1` [compound 446], the LogP is 2.96 [a]. With `Cn1c(/C(=N\OCc2cccc(NC(=O)OCCOCCCl)n2)c2ccccc2)noc1=O` [compound 447] the figure was 3.29 [a]; with `CC(C)=CCCOC(=O)Nc1cccc(CO/N=C(/c2ccccc2)c2noc(=O)n2C)n1` [compound 448], 4.39 [a]; with `COc1ccc(COC(=O)Nc2cccc(CO/N=C(/c3ccccc3)c3noc(=O)n3C)n2)cc1` [compound 450], 3.92 [a]. The figure for `CC(COC(=O)Nc1cccc(CO/N=C(/c2ccccc2)c2noc(=O)n2C)n1)CC(C)(C)C` (stereo not drawn) [compound 451] is 5.39 [a]; for `C=CCC#CCCOC(=O)Nc1cccc(CO/N=C(/c2ccccc2)c2noc(=O)n2C)n1` [compound 452] it is 4.01 [a]. The figure for `C=CCCCCOC(=O)Nc1cccc(CO/N=C(/c2ccccc2)c2noc(=O)n2C)n1` [compound 454] is 4.39 [a]; for `Cn1c(/C(=N\OCc2cccc(NC(=O)OCCOc3ccccc3)n2)c2ccccc2)noc1=O` [compound 456] it is 3.94 [a]. Regarding `COC(C)(C)CCOC(=O)Nc1cccc(CO/N=C(/c2ccccc2)c2noc(=O)n2C)n1` [compound 457], the lipophilicity (LogP) is 3.59 [a].

Regarding `Cc1cccc(COC(=O)Nc2cccc(CO/N=C(/c3ccccc3)c3noc(=O)n3C)n2)c1` [compound 458], the log partition coefficient (LogP) is 4.34 [a]. `Cn1c(/C(=N\OCc2cccc(NC(=O)OCCBr)n2)c2ccccc2)noc1=O` [compound 459]: the log partition coefficient (LogP) was 3.42 [a].
